Consider 7 compounds from patent US20100113776A1, “PYRAZOLE DERIVATIVE” (TAISHO PHARMACEUTICAL CO.,LTD., priority 2006, published 2010).

The structures appear in SMILES notation.

The target in test [1] is T1, human H3 receptor (Homo sapiens, UniProt Q9Y5N1).
T1 construct: purchased Euroscreen ES-392-M; host or cells: CHO-K1 cells (recombinant expression)
Nature of the test: H3 receptor binding test. The note with it: membrane preparation of human H3 receptor-expressing CHO-K1 cells; 2 nM R(−)-α-methyl[3H]histamine; room temperature, 1 hour. The procedure: A membrane preparation of human H3 receptor-expressing CHO—K1 cells (Euroscreen, ES-392-M, 15 μg protein/200 μl), R(−)-α-methyl[^3H]histamine (Amersham, TRK-1017, specific activity: 1.74 TBq/mmol, 2 nM) and a test drug were reacted at room temperature for 1 hour. After completion of the reaction, the reaction mixture was subjected to suction filtration through a 0.3% polyethyleneimine-treated glass filter (GF/C). The glass filter was washed five times with 50 mM Tris-HCl washing solution (pH 7.4) containing 0.1% BSA and 5 mM magnesium chloride. After washing, the glass filter was dried and a scintillator was added thereto, followed by measurement of radioactivity on the filter using a liquid scintillation counter.
Binding of R(−)-α-methyl[^3H]histamine in the presence of 10 μM R(−)-α-methylhistamine was defined as non-specific binding, and the difference between total binding and non-specific binding of R(−)-α-methyl[^3H]histamine was defined as specific binding of R(−)-α-methyl[^3H]histamine. A fixed concentration (2 nM) of R(−)-α-methyl[^3H]histamine was reacted under the above conditions with each test drug at various concentrations to obtain an inhibition curve. The inhibition curve was used to determine the concentration (IC50) of each test drug required for 50% inhibition of R(−)-α-methyl[^3H]histamine binding.

Test [2] has as its target T1, human H3 receptor. Nature of the test: [35S]GTP-γ-S binding test. Type of test: biochemical. The note with it: human H3 receptor membrane preparation; 100 μM R(−)-α-methylhistamine; 0.2 nM [35S]GTP-γ-S; 30 μM GDP. How it is done:
A human H3 receptor membrane preparation (7.5 μg protein/100 μl), 30 μM GDP, 100 μM R(−)-α-methylhistamine and a test compound were reacted at room temperature for 30 minutes. After completion of the reaction, [^35S]GTP-γ-S (0.2 nM) was added and reacted for an additional 30 minutes. After completion of the reaction, the reaction mixture was subjected to suction filtration through a glass filter (GF/C). The glass filter was washed three times with 20 mM HEPES washing solution (pH 7.4) containing 100 mM sodium chloride and 1 mM magnesium chloride. After washing, the glass filter was dried and a scintillator was added thereto, followed by measurement of radioactivity on the filter using a liquid scintillation counter.
Binding of [^35S]GTP-γ-S in the absence of R(−)-α-methylhistamine was defined as non-specific binding, and the difference between total binding in the presence of R(−)-α-methylhistamine and non-specific binding was defined as specific binding of [^35S]GTP-γ-S. Fixed concentrations of [^35S]GTP-γ-S (0.2 nM) and R(−)-α-methylhistamine (100 μM) were reacted under the above conditions with each test drug at various concentrations to obtain an inhibition curve. The inhibition curve was used to determine the concentration (IC50) of each test drug required for 50% inhibition of [^35S]GTP-γ-S binding.
For orientation: GTPγS resists hydrolysis and so accumulates on activated G proteins.

The next test has as its system male SD rats. The test can be described thus: Social recognition test. In kind it is in vivo, rat. The following applies: compared to the vehicle group. The procedure: In this test, male SD rats were used. Adult rats were placed in a Perspex test box and acclimated for 30 minutes. Then, young rats were placed in the same test box, and the time taken for the adult rats to show exploratory behavior to the young rats during 5 minutes was measured (first exploratory behavior time). The exploratory behavior measured included sniffing, grooming, and closely following. After a 5 minute exploration, the adult and young rats were removed from the test box and returned to their respective home cages. After 90 minutes, the adult rats were placed again in the same test box as used in the first exploratory behavior test and acclimated for 30 minutes. Then, the same young rats as used in the first test were placed in the test box, and the time taken for the adult rats to show exploratory behavior to the young rats during 5 minutes was measured (second exploratory behavior time). The ratio of the second exploratory behavior time to the first exploratory behavior time (second/first exploratory behavior time ratio) was taken as an indicator of social recognition. The compound of the present invention was orally administered to the adult rats immediately after their first exploratory behavior. The compound of the present invention was dissolved in 0.03 N hydrochloric acid and tested at 0.1, 0.3 and 1 mg/kg.

T1 sequence (Q9Y5N1 whole entry): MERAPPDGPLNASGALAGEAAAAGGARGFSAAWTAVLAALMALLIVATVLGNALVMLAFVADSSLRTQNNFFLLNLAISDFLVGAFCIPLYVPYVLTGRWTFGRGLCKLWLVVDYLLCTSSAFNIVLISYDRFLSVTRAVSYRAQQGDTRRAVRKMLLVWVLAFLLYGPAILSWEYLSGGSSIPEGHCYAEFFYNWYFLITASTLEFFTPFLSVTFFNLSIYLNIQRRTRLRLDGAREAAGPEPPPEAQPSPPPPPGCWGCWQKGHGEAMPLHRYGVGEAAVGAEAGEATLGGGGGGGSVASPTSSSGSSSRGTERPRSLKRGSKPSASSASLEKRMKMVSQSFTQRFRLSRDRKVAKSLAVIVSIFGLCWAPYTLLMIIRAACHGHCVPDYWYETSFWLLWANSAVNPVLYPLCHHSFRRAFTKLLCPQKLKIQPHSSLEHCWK

What is called IC50 is the concentration at which inhibition is half-maximal. Turning to `CC1CCCC1N1CCC(Oc2ccc(-n3cc(C(=O)N4CCCC4)cn3)cc2)CC1` (stereo not shown) [Compound No. 5, 1-(2-methylcyclopentyl)-4-{4-[4-(pyrrolidin-1-ylcarbonyl)-1H-pyrazol-1-yl]phenoxy}piperidine], the IC50 at human H3 receptor [1] amounted to 8.1 nM. Turning to `O=C(c1cnn(-c2ccc(OC3CCN(C4CCC4)CC3)cc2)c1)N1CCCC1` [Compound No. 14, 1-cyclobutyl-4-{4-[4-(pyrrolidin-1-ylcarbonyl)-1-pyrazol-1-yl]phenoxy}piperidine], the concentration for half-maximal inhibition (IC50) at human H3 receptor [1] was 7.1 nM; at human H3 receptor [2] it was 1.6 nM. For `O=C(c1ccn(-c2ccc(OC3CCN(C4CCC4)CC3)cc2)n1)N1CCCC1` [Compound No. 68, {1-[4-(1-cyclobutylpiperidin-4-yloxy)phenyl]-1H-pyrazol-3-yl}pyrrolidin-1-yl-methanone] the same measures were 7.1 nM and 1.2 nM. In the case of `O=C(c1cnn(-c2ccc(OC3CCN(C4CCCC4)CC3)cc2)c1)N1CCCC1` [Compound No. 1, 1-cyclopentyl-4-{4-[4-(pyrrolidin-1-ylcarbonyl)-1H-pyrazol-1-yl]phenoxy}piperidine], the “second/first exploratory behavior time ratio” value with male SD rats (0.3 mg/kg orally to adult male SD rats immediately after first exploratory behavior) and with male SD rats (1 mg/kg orally to adult male SD rats immediately after first exploratory behavior) was “significantly reduced” in each case. Further, the figures for the concentration for half-maximal inhibition (IC50) at human H3 receptor [1] and at human H3 receptor [2] were 10.4 nM and 2.6 nM, respectively.

On to `O=C(NCC(F)(F)F)c1cnn(-c2ccc(OC3CCN(C4CCC4)CC3)cc2)c1` [compound 18, 1-{4-[(1-cyclobutylpiperidin-4-yl)oxy]phenyl}-N-(2,2,2-trifluoroethyl)-1H-pyrazole-4-carboxamide], for which the IC50 on human H3 receptor [1] came out at 14.7 nM. For the compound `O=C(NC1CCCC1)c1cnn(-c2ccc(OC3CCN(C4CCC4)CC3)cc2)c1` [compound 16, 1-{4-[(1-cyclobutylpiperidin-4-yl)oxy]phenyl}-N-cyclopentyl-1H-pyrazole-4-carboxamide], the figures for the IC50 on human H3 receptor [1] and at human H3 receptor [2] were 5.7 nM and 1.1 nM, respectively. For `O=C(NCC1CCCCC1)c1cnn(-c2ccc(OC3CCN(C4CCC4)CC3)cc2)c1` [compound 19, 1-{4-[(1-cyclobutylpiperidin-4-yl)oxy]phenyl}-N-(cyclohexylmethyl)-1H-pyrazole-4-carboxamide], at human H3 receptor [1], the IC50 was found to be 6.2 nM.
